Our source for the IC50 values is PubChem BioAssay AID1361 (SRMLSC, 2008).

This experiment is described as follows: mitochondrial fusion inhibitors, confirmation, cell-based, chemical genetic, wild-type and mutant (AID 1361). Particulars: Cell-based mitochondrial fusion phenotype, imaging.
The mark [1] stands for this setting: mutant cells, measured here: mutant cell line IC50.

Active and inactive are the calls of the source. No rule for the calls is given here.

With `O=C(NC(Cc1c[nH]c2ccccc12)C(=O)Nc1ccc(OC(F)(F)F)cc1)c1cccs1` (centres undefined), the IC50 (WT cells) is > 25 µM (inactive) and the IC50 under setting [1] was > 25 µM.
With `COC(=O)CN(c1ccc2c(c1)OCCO2)S(=O)(=O)c1ccccc1`, the IC50 (WT cells) was > 25 µM (inactive) and the IC50 under setting [1] was > 25 µM.
Take `COC(=O)c1c(NC(=O)CN2CCC3(O)CCCCC3C2c2ccccc2OC)sc(C)c1C` (centres undefined): the IC50 (WT cells) was 10.4 µM and the IC50 under setting [1] was > 25 µM.
On the same counts, the results for `CN(C)c1ncc(S(=O)(=O)c2ccc(Cl)cc2)c(-c2ccc(Cl)cc2Cl)n1` are 9.56 µM and 15.3 µM.
On the same counts, the results for `O=S(Cc1ccc(Br)cc1)Cc1nnc(SCc2ccc(Br)cc2)n1-c1ccccc1` (centres undefined) are 13.7 µM and > 25 µM.
On the same counts, the results for `CCCOC(=O)c1ccc(Oc2cn[nH]c2-c2ccc(OC)cc2O)cc1` are 11.3 µM and 21.9 µM.
`O=c1c2cn[nH]c2nc(SCc2ccccc2F)n1-c1ccc(Br)cc1`: the IC50 is 11.2 µM (WT cells) and 23.8 µM under setting [1].
On the same counts, the results for `COc1ccccc1N(CC(O)COc1c(C)cc(C)cc1C)S(=O)(=O)c1ccccc1` (centres undefined) are 16.1 µM and > 25 µM.
On the same counts, the results for `COC(=O)c1c(NC(=O)CN2CCC3(O)CCCCC3C2c2cc(OC)ccc2OC)sc(C)c1C` (centres undefined) are 8.13 µM and > 25 µM.
Regarding `CC1(C)CC(=O)C2=C(C1)N(c1ccc(F)cc1)C(=O)C2(O)C(F)(F)F` (centres undefined), the IC50 runs as follows: (WT cells) > 25 µM (inactive); under setting [1], > 12.5 µM.
On the same counts, the results for `CCN(CC)c1ccc(NC(=O)Nc2ccccc2C(F)(F)F)cc1` are > 25 µM (inactive) and > 25 µM.
On the same counts, the results for `O=C(c1ccc(C(F)(F)F)cc1)N1CCC(=O)N(C(COCc2ccc(Cl)cc2)Cc2ccccc2)CC1` (centres undefined) are 19.1 µM and > 25 µM.
As for `c1csc(C(c2nnnn2C2CCCCC2)N2CCCC3(CCCCC3)C2)c1` (centres undefined), the IC50 (WT cells) was 4.15 µM and the IC50 under setting [1] is > 25 µM.
On the same counts, the results for `CCOc1ccccc1NC(=O)C(NCC1CCCCC1)c1ccccc1` (centres undefined) are 14.3 µM and > 25 µM.
On to `CC(C)C(=O)N(c1cc2sc(=O)oc2c2ccccc12)S(=O)(=O)c1cccs1`, for which the IC50 is, setting by setting: (WT cells) 7.48 µM; under setting [1], 20.7 µM.
On the same counts, the results for `CC1CN(C(=O)N(C)C)CCN1C(=O)N(C)C` (centres undefined) are > 25 µM (inactive) and > 25 µM.
As to `COc1ccc(-c2cc3nc(-c4ccccc4)cc(N4CCC(O)CC4)n3n2)cc1`, the IC50 runs as follows: (WT cells) > 25 µM (inactive); under setting [1], > 25 µM.
On the same counts, the results for `Cc1ccc(O)c(-c2cc(-c3ccccc3[N+](=O)[O-])[nH]n2)c1` are > 25 µM (inactive) and > 25 µM.
On the same counts, the results for `CCc1nnc(NC(=O)Nc2ccccc2OC)s1` are > 25 µM (inactive) and > 25 µM.
On the same counts, the results for `Fc1ccc(C(CCCn2nnc(-c3cccnc3)n2)c2ccc(F)cc2)cc1` are 21.9 µM and > 25 µM.
On to `CCC(C(=O)OCC(=O)Nc1ccccc1-c1ccccc1)c1ccccc1` (centres undefined), for which the IC50 is, setting by setting: (WT cells) 17.3 µM; under setting [1], > 25 µM.
For the molecule `O=C(c1cc(-c2ccc(Cl)cc2)n(-c2ccc(Cl)c(Cl)c2)n1)N1CCOCC1`, the IC50 is 16.9 µM (WT cells) and > 25 µM under setting [1].
On to `CCOC(=O)C1=C(C)NC(C)=C(C(=O)OC)C1c1cccc(Cl)c1Cl` (centres undefined), for which the IC50 was 20.4 µM (WT cells) and > 25 µM under setting [1].
As for `O=C(OCc1csc(Nc2ccccc2)n1)c1ccc(Cl)cc1`, the IC50 is 10.1 µM (WT cells) and 17.6 µM under setting [1].
On the same counts, the results for `O=C(N=Nc1c(O)n(Cc2ccccc2)c2ccccc12)c1cc2ccccc2cc1O` are > 25 µM (inactive) and > 25 µM.
On the same counts, the results for `Cc1cccc2nc(-c3ccccc3)nc(N3CCC(O)(c4ccc(Cl)cc4)CC3)c12` are 4.04 µM and > 25 µM.
On the same counts, the results for `COc1ccccc1/C=C/C=N\N1CCN(Cc2ccccc2Cl)CC1` are 20.9 µM and > 25 µM.
Regarding `C/C=C(/C(=C/C)c1ccc(O)cc1)c1ccc(O)cc1`, the IC50 is, setting by setting: (WT cells) 21 µM; under setting [1], > 25 µM.
On the same counts, the results for `O=C(Nc1ccccc1N1CCOCC1)c1cccc(F)c1` are 9.3 µM and 21.6 µM.
Take `CC(=O)Nc1ccc(S(=O)(=O)N2CCSC2c2ccc(Cl)cc2)cc1` (centres undefined): the IC50 reads like this: (WT cells) > 25 µM (inactive); under setting [1], > 25 µM.
On the same counts, the results for `CCOc1ccc(-c2nc(N)ncc2Oc2ccccc2Br)c(O)c1` are > 25 µM (inactive) and > 25 µM.
With `S=c1[nH]nc(-c2cc3ccccc3o2)n1Cc1ccccc1`, the IC50 by setting is: (WT cells) 12.5 µM; under setting [1], 23.1 µM.
With `CCOc1ccc(C(=O)C(CCC(CN(C)C)C(=O)c2ccc(OCC)cc2)CN(C)C)cc1` (centres undefined), the IC50 (WT cells) is 20.4 µM and the IC50 under setting [1] was > 25 µM.
On the same counts, the results for `O=C(COC(=O)c1ccc([N+](=O)[O-])s1)Nc1ccccc1` are 17.7 µM and > 25 µM.
Take `CCC(C)(C)c1ccc(OCC(=O)N(C)C)c(C(C)(C)CC)c1`: the IC50 is 20.9 µM (WT cells) and > 25 µM under setting [1].
On the same counts, the results for `COCCn1c(=S)[nH]c2cc(C(=O)N3CCc4ccccc43)ccc2c1=O` are > 25 µM (inactive) and > 25 µM.
On the same counts, the results for `Cc1nn(Cc2ccccc2Cl)c(C)c1NC(=O)NC12CC3CC(CC(C3)C1)C2` are > 25 µM (inactive) and > 25 µM.
On the same counts, the results for `CC12CCC(O)CC1=CCC1C2CCC2(C)C1CCC21CCC(=O)O1` (centres undefined) are 15 µM and > 25 µM.
On to `Cc1onc(-c2ccccc2Cl)c1C(=O)Nc1nnc(-c2ccc(Br)cc2)s1`, for which the IC50 is 8.39 µM (WT cells) and > 25 µM under setting [1].
On the same counts, the results for `C[C@]1(C(=O)NCCCNc2ncc(C(F)(F)F)cc2Cl)C=C[C@@H](Cc2ccccc2)N1C(=O)c1ccccc1` are 11.9 µM and > 25 µM.
On the same counts, the results for `Cc1ccc(C(=O)/C=C/c2c(C)nn(-c3ccccc3)c2Cl)cc1` are 20.2 µM and > 25 µM.
With `CCCC12CN3CCN(CC(C3)/C1=N\NC(=O)c1ccc(C(C)(C)C)cc1)C2`, the IC50 was 6.28 µM (WT cells) and 20.2 µM under setting [1].
On the same counts, the results for `COc1cccc(C2Nc3c(F)cc(Br)cc3C3C=CCC32)c1OC` (centres undefined) are 14.9 µM and > 25 µM.
In the case of `C=CCn1c(COc2ccccc2-c2ccccc2)nnc1SCC(=O)NC(=O)NCc1ccco1`, the IC50 (WT cells) is > 25 µM (inactive) and the IC50 under setting [1] was > 25 µM.
As for `O=C(Nc1cc(S(=O)(=O)N2CCCCC2)ccc1Cl)c1ccccc1NS(=O)(=O)c1ccc(F)cc1`, the IC50 runs as follows: (WT cells) 23.4 µM; under setting [1], > 25 µM.
Regarding `Cc1ccc2c(CSc3nnc(C4CC4)n3N)cc(=O)oc2c1C`, the IC50 reads like this: (WT cells) > 25 µM (inactive); under setting [1], > 25 µM.
On the same counts, the results for `CCOC(=O)c1c(C)n(-c2ccc(C)cc2)c2ccc(OCC(O)CNCC3CCCO3)cc12` (centres undefined) are 15 µM and > 25 µM.
Take `COC(=O)c1ccc(NC(=O)Nc2ccc(F)c(Cl)c2)cc1`: the IC50 runs as follows: (WT cells) 19.4 µM; under setting [1], > 25 µM.
`CCn1cc(C(=O)N2CCc3ccccc32)c(=O)c2cc(S(=O)(=O)N(C)C3CCCCC3)ccc21`: the IC50 was > 25 µM (inactive) (WT cells) and > 25 µM under setting [1].
On the same counts, the results for `c1ccc(-c2nnc(CSc3nnc(-c4ccncc4)n3Cc3ccco3)o2)cc1` are > 25 µM (inactive) and > 25 µM.
Take `CCN(CC)c1nc(-c2ccccc2)ncc1S(=O)(=O)c1ccc(C)cc1`: the IC50 is, setting by setting: (WT cells) 11 µM; under setting [1], > 25 µM.
On the same counts, the results for `COCCN1C(=O)/C(=C/c2ccc(OCc3ccc(C(=O)O)cc3)c(OC)c2)SC1=Nc1ccccc1` are > 25 µM (inactive) and > 25 µM.
On the same counts, the results for `C=CCSc1nnc(NC(=O)COc2ccc3ccccc3c2)s1` are > 25 µM (inactive) and > 25 µM.
As to `Cc1ccc(-n2nc3c(c2NC(=O)c2ccc4c(c2)OCO4)CSC3)c(C)c1`, the IC50 (WT cells) is > 25 µM (inactive) and the IC50 under setting [1] is > 25 µM.
On the same counts, the results for `CCCCCc1nc2sc3c(c2c(=O)n1NC(=O)c1ccc([N+](=O)[O-])cc1)CC(C)(C)OC3` are 15.5 µM and > 25 µM.
On to `COc1cc(OC)c2c(c1)C(=O)c1cc(OC)cc(OC)c1C2=O`, for which the IC50 (WT cells) was > 25 µM (inactive) and the IC50 under setting [1] is > 25 µM.
Consider `COc1ccc(OC)c(C(=O)c2coc3ccc(OC)cc23)c1`, for which the IC50 reads like this: (WT cells) > 25 µM (inactive); under setting [1], > 25 µM.
On the same counts, the results for `CCN(CC)P(=O)(Nc1ccc(C)cc1Br)c1ccc(N(C)C)cc1NC(=O)c1ccco1` (centres undefined) are 12.8 µM and > 25 µM.
Take `CCCCSc1nnc(-c2ccc(C)cc2)c2ccccc12`: the 50% inhibitory concentration (IC50) reads like this: (WT cells) 9.57 µM; under setting [1], 23.1 µM.
Consider `N#C/C(=C\c1cccc(NC(=O)c2ccccc2Cl)c1)C(=O)NCCc1ccccc1`, for which the IC50 is 10.9 µM (WT cells) and > 25 µM under setting [1].
For `CC1CCc2nc(NC(=O)CN3CCN(c4ccc(F)cc4)CC3)sc2C1` (centres undefined), the IC50 is, setting by setting: (WT cells) > 25 µM (inactive); under setting [1], 15.9 µM.
As for `Cc1cc(C)nc(N2CCC(C(=O)NCCc3ccc(F)cc3)CC2)n1`, the IC50 (WT cells) is > 25 µM (inactive) and the IC50 under setting [1] was > 25 µM.
On the same counts, the results for `Cc1cc(C)nc(Nc2ncc(O)n2-c2ccccc2)n1` are > 25 µM (inactive) and > 25 µM.
On the same counts, the results for `CC(C)CN(C(=O)c1nn(C)c(=O)c2ccccc12)c1nc2ccccc2s1` are 21.9 µM and > 25 µM.
On the same counts, the results for `Cc1ccc(S(=O)(=O)n2c3ccc(Cl)cc3c3nc(C)sc32)cc1` are 9.63 µM and > 25 µM.
In the case of `Oc1ccccc1-c1nc(/C=C/c2ccccc2)nn1-c1ccccc1`, the IC50 (WT cells) is 11.2 µM and the IC50 under setting [1] turned out to be 15.4 µM.
On the same counts, the results for `CCOC(=O)c1c(C)n(C)c2cc(Br)c(C(=O)OC)cc12` are > 25 µM (inactive) and > 25 µM.
